Assay results from PMC8799717, “Pharmacological targeting PIKfyve and tubulin as an effective treatment strategy for double-hit lymphoma” (Cell Death Discovery, 2022).

Legend:
Assay in all cases: biochemical
Set-up in all cases: KINOMEscan active-site-directed competition binding panel, 468 kinases, percent of DMSO control at 1 uM
Conditions in all cases: KINOMEscan binding, percent of DMSO control; read-out: Ctrl%
[1] = biological target: MST1R (Homo sapiens, UniProt Q04912)
[2] = biological target: EGFR(L858R) (Homo sapiens, UniProt P00533, L858R)
[3] = biological target: WNK1 (Homo sapiens, UniProt Q9H4A3)
[4] = biological target: FLT1 (Homo sapiens, UniProt P17948)
[5] = biological target: EGFR(E746-A750del) (Homo sapiens, UniProt P00533, DEL746-750)
[6] = biological target: LATS2 (Homo sapiens, UniProt Q9NRM7)
[7] = biological target: GSK3A (Homo sapiens, UniProt P49840)
[8] = biological target: T1, ICK (Homo sapiens, UniProt Q9UPZ9)
T1 construct: gene CILK1

[9] = biological target: HIPK3 (Homo sapiens, UniProt Q9H422)
[10] = biological target: NEK4 (Homo sapiens, UniProt P51957)
[11] = biological target: LATS1 (Homo sapiens, UniProt O95835)
[12] = biological target: PAK4 (Homo sapiens, UniProt O96013)
[13] = biological target: T2, SNARK (Homo sapiens, UniProt Q9H093)
T2 construct: gene NUAK2

[14] = biological target: FLT3(ITD,F691L) (Homo sapiens, UniProt P36888, F691L/ITD)
[15] = biological target: RET(M918T) (Homo sapiens, UniProt P07949, M918T)
[16] = biological target: FLT3(D835V) (Homo sapiens, UniProt P36888, D835V)
[17] = biological target: T3, ABL1-phosphorylated (Homo sapiens, UniProt P00519)
T3 construct: phosphorylated

[18] = biological target: CASK (Homo sapiens, UniProt O14936)
[19] = biological target: MYO3B (Homo sapiens, UniProt Q8WXR4)
[20] = biological target: ACVR2B (Homo sapiens, UniProt Q13705)
[21] = biological target: T4, PIP5K2C (Homo sapiens, UniProt Q8TBX8)
T4 construct: gene PIP4K2C

[22] = biological target: T5, BIKE (Homo sapiens, UniProt Q9NSY1)
T5 construct: gene BMP2K

[23] = biological target: NEK10 (Homo sapiens, UniProt Q6ZWH5)
[24] = biological target: PLK2 (Homo sapiens, UniProt Q9NYY3)

Chain of ACVR2B (Q13705 whole entry): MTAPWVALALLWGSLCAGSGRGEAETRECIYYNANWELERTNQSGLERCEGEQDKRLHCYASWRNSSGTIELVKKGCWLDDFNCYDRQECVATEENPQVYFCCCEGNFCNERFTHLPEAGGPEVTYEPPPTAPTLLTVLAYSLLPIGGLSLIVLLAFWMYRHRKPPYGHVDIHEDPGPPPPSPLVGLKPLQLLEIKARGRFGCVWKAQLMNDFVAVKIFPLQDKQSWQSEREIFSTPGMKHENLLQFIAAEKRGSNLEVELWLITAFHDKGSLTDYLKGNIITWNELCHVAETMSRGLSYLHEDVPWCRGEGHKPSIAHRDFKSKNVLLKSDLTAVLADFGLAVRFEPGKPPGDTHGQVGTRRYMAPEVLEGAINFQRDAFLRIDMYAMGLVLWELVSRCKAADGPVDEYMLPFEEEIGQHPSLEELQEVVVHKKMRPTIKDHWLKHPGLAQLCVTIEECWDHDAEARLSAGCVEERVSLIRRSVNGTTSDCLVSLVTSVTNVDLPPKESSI
Chain of GSK3A (P49840 whole entry): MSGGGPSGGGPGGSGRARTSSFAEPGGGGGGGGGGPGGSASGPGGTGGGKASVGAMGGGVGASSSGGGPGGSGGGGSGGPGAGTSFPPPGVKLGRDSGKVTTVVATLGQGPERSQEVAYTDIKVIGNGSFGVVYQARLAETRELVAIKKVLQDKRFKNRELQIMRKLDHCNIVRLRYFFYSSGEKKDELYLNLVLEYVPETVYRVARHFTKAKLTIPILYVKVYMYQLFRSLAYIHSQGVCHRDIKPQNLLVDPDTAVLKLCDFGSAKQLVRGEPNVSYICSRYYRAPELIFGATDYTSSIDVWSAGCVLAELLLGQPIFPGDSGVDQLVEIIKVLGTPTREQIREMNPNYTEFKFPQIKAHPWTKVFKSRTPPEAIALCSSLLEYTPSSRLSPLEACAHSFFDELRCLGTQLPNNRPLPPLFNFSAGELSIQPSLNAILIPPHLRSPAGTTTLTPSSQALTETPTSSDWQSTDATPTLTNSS
Chain of PAK4 (O96013 whole entry): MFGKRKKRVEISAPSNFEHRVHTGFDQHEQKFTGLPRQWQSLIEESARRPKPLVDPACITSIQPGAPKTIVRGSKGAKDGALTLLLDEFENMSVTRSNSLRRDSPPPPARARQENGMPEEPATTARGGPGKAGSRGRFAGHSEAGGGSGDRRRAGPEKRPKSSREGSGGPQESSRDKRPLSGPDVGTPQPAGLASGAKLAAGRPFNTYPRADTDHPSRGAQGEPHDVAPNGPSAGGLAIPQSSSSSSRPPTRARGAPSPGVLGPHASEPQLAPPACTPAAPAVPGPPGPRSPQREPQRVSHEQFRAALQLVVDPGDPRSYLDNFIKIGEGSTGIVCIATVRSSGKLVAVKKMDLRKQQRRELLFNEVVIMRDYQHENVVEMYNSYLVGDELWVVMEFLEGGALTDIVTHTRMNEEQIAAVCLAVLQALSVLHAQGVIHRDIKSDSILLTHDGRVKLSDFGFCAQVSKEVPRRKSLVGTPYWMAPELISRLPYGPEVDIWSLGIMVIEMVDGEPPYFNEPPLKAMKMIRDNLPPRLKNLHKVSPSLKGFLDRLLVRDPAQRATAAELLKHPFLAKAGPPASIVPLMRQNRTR
Chain of NEK4 (P51957 whole entry): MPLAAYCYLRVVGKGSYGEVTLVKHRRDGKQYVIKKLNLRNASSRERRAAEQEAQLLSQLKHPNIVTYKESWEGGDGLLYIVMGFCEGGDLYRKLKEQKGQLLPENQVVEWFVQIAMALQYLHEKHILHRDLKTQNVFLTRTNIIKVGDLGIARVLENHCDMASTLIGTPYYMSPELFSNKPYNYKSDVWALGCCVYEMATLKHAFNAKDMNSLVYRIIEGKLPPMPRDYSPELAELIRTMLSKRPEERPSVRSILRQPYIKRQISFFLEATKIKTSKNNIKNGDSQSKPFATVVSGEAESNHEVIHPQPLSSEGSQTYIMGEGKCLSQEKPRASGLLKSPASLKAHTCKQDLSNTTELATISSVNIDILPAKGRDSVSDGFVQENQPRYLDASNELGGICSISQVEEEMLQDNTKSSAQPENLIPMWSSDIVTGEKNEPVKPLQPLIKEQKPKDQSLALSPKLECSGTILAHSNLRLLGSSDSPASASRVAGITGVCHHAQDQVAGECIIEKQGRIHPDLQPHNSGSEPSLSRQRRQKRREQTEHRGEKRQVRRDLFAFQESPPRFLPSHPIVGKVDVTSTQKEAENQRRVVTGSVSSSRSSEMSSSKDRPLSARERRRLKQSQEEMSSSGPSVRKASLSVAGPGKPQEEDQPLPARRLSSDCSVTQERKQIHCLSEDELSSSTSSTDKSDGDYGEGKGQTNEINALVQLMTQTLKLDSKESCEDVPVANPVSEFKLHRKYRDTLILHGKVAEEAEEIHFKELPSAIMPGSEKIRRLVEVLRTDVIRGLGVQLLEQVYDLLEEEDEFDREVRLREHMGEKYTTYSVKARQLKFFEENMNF
Chain of MYO3B (Q8WXR4 whole entry): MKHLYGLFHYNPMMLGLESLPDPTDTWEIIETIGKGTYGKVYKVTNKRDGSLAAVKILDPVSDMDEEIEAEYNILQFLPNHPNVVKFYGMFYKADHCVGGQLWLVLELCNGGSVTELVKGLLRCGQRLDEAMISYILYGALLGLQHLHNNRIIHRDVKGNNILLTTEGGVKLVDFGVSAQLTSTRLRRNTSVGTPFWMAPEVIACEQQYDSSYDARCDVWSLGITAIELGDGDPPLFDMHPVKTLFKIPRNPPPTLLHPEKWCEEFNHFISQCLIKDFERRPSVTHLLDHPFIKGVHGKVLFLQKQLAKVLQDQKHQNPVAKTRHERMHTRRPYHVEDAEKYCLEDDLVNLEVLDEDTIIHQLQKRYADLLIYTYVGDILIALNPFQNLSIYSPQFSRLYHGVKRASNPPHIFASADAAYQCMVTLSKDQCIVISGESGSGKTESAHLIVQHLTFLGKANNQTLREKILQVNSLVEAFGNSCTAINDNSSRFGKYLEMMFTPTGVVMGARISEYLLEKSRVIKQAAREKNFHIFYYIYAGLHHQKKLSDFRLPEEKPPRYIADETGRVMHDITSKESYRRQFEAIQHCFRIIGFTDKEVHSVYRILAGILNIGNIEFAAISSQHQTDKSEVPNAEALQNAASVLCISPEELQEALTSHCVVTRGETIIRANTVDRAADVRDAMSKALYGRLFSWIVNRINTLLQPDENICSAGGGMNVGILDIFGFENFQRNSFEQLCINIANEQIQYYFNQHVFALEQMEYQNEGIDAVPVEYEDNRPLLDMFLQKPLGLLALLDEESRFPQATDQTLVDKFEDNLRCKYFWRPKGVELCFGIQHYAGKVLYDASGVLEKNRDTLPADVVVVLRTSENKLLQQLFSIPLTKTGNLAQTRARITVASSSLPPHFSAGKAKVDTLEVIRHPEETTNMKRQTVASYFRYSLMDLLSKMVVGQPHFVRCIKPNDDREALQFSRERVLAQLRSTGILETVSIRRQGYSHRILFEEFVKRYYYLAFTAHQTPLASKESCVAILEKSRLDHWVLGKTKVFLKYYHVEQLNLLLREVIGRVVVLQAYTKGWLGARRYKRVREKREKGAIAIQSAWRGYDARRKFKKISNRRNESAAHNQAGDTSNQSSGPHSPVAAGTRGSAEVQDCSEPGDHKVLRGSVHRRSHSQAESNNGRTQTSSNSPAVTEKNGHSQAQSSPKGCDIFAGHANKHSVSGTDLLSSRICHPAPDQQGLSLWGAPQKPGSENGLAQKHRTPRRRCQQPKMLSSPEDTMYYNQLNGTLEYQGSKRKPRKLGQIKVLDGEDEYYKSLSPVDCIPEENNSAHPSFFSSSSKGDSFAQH
T1 sequence (Q9UPZ9 whole entry): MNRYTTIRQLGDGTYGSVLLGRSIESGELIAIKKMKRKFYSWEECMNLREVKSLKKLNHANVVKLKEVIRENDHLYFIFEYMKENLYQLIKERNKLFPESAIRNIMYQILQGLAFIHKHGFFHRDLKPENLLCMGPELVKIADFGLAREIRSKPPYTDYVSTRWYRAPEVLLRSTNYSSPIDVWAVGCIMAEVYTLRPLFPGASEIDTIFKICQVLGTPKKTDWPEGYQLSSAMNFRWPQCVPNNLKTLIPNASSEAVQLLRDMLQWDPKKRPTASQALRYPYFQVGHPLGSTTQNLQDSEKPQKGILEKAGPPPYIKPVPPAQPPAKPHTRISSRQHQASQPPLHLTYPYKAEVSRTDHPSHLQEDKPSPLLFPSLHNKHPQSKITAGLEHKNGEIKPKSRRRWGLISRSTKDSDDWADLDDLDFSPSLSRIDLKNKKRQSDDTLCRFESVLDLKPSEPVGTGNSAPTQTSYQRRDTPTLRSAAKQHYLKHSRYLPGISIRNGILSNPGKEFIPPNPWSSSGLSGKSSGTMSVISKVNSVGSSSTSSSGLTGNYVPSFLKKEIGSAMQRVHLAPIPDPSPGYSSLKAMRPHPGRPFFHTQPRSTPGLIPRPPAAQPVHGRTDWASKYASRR
T4 sequence (Q8TBX8 whole entry): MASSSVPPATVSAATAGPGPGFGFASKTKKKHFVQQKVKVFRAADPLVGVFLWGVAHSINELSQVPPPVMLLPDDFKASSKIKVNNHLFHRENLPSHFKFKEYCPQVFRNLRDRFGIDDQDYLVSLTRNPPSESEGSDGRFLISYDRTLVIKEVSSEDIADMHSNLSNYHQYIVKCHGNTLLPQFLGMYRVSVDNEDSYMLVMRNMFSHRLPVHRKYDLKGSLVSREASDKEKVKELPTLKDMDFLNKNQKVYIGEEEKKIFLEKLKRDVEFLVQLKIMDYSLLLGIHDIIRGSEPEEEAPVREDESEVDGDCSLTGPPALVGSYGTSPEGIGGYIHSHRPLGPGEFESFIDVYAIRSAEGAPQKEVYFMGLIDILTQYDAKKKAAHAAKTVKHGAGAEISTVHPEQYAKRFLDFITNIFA

Structure (SMILES): Cc1ccc(NC(=O)c2cccc(C(F)(F)F)c2)cc1Nc1cc(-c2cccnc2)nc2[nH]ccc12 [HZX-02-059]
- remaining binding at 1 µM [1]: 89%
- remaining binding at 1 µM [2]: 87%
- remaining binding at 1 µM [3]: 98%
- remaining binding at 1 µM [4]: 96%
- remaining binding at 1 µM [5]: 90%
- remaining binding at 1 µM [6]: 67%
- remaining binding at 1 µM [7]: 98%
- remaining binding at 1 µM [8]: 77%
- remaining binding at 1 µM [9]: 94%
- remaining binding at 1 µM [10]: 86%
- remaining binding at 1 µM [11]: 95%
- remaining binding at 1 µM [12]: 95%
- remaining binding at 1 µM [13]: 99%
- remaining binding at 1 µM [14]: 100%
- remaining binding at 1 µM [15]: 99%
- remaining binding at 1 µM [16]: 100%
- remaining binding at 1 µM [17]: 55%
- remaining binding at 1 µM [18]: 92%
- remaining binding at 1 µM [19]: 97%
- remaining binding at 1 µM [20]: 71%
- remaining binding at 1 µM [21]: 43%
- remaining binding at 1 µM [22]: 94%
- remaining binding at 1 µM [23]: 100%
- remaining binding at 1 µM [24]: 99%
